Reference: patent US9051250B2, “Polymorphs of N-malonyl-bis(N′-methyl-N′-thiobenzoylhydrazide)” (Synta Pharmaceuticals Corp., priority 2007, dated 2015)
Converted amounts (≈) assume the structure as drawn. Where two headings read alike, the source gives them in different places. One block for each compound: values may come before it.

Legend:
[1] = Reconstitution test in 50:50 Cremophor EL/Ethanol; format: physicochemical; settings: 266 mg in 16.7 ml 50:50 Cremophor EL/Ethanol
Method: As used herein, the reconstitution time is measured in 50:50 Cremophor EL/ethanol solution at ambient temperature (e.g., 18-25° C.) The reconstitution time can be measure according to the procedure described in Example 7. For example, the reconstitution time is measured by dissolving 266 mg of compound 1 in 16.7 mL of 50:50 Cremophor EL/ethanol solution with manual shaking or mechanical shaking at a speed of 232-236 rpm.
50:50 Cremophor EL/Ethanol was prepared and filtered through a 0.45 μm filter and used for testing. 266 mg of compound 1 was weighed into a 50 mL glass vial with a rubber stopper. 16.7 ml of filtered 50:50 Cremophor EL/Ethanol solution was taken by a syringe and needle and added into the vial. The vial was shaken either manually, or on a mechanical shaker at a speed of 232-236 rpm. The reconstitution time was determined with three vials. At different time points, vials were subject to visual observation.

[2] = Solubility of Form A and Form D; format: physicochemical; settings: shake time 24 hour; for solubility at 24 h: organic solvent or mixture, thermodynamic from solid
[3] = Stability study (appearance, HPLC, IR) in stability chambers; format: physicochemical; settings: for % compd 1 / % compd 2: HPLC
Method: 100 mg±2% of compound 1 was weighed into each 20 mL scintillation vial. The vials were capped with appropriate caps and sealed with Parafilm to prevent moisture entrapment. Stability for the test compounds synthesized from different log was tested. Twelve vials for each lot were prepared and distributed into respective stability chambers to initiate their stability study according to the following protocol.
Stability of the test compound was determined by its appearance and by analytical methods such as HPLC and IR. The IR test was performed for all time points under the two conditions listed above using material in one vial.
Compound 1 contains trace amount of compound 2 shown below. The amounts of compound 1 and 2 present at each time point were analyzed by HPLC.

Sieve-cut test = format: physicochemical; settings: 300 micron screen
Method: […] 5 g to 20 g samples were used, depending on the batch size. The mass and percentage of material collected in the receiver were measured.

[4] = tested on: stage IV metastatic melanoma; settings: in combination with taxol, relative to patients treated with paclitaxel alone; cited from earlier work

Compound: CN(NC(=O)CC(=O)NN(C)C(=S)c1ccccc1)C(=S)c1ccccc1 [Crystal Habit 1, N-malonyl-bis(N′-methyl-N′-thiobenzoylhydrazide)]
Re-constitution time (min) for specific sieve-cut ([1]; 500 micron sieve-cut): greater than 25 min

Compound: CN(NC(=O)CC(=O)NN(C)C(=S)c1ccccc1)C(=S)c1ccccc1 [Crystal Habit 2, N-malonyl-bis(N′-methyl-N′-thiobenzoylhydrazide)]
Re-constitution time (min) for specific sieve-cut ([1]; 150 micron sieve-cut): less than or equal to 15 min

Compound: CN(NC(=O)CC(=O)NN(C)C(=S)c1ccccc1)C(=S)c1ccccc1 [Form A, N-malonyl-bis(N′-methyl-N′-thiobenzoylhydrazide)]
solubility at 24 h ([2]; 50:50 Cremophor/ethanol, 50:50 Cremophor/EtOH, Vial1, read-out: Solubility in 50:50 Cre/EtOH, Vial1): 24400 µg/mL (≈ 60.8 mM)
solubility at 24 h ([2]; 50:50 Cremophor/ethanol, 50:50 Cremophor/EtOH, Vial2, read-out: Solubility in 50:50 Cre/EtOH, Vial2): 24300 µg/mL (≈ 60.6 mM)
solubility at 24 h ([2]; 50:50 Cremophor/ethanol, 50:50 Cremophor/EtOH, average of two vials, read-out: Solubility in 50:50 Cre/EtOH, Average): 24300 µg/mL (≈ 60.7 mM)
solubility at 24 h ([2]; ethanol, EtOH, Vial1, read-out: Solubility in EtOH, Vial1): 6280 µg/mL (≈ 15.7 mM)
solubility at 24 h ([2]; ethanol, EtOH, Vial2, read-out: Solubility in EtOH, Vial2): 6450 µg/mL (≈ 16.1 mM)
solubility at 24 h ([2]; ethanol, EtOH, average of two vials, read-out: Solubility in EtOH, Average): 6400 µg/mL (≈ 16 mM)
solubility at 24 h ([2]; ethyl acetate, EtOAc, Vial1, read-out: Solubility in EtOAc, Vial1): 4690 µg/mL (≈ 11.7 mM)
solubility at 24 h ([2]; ethyl acetate, EtOAc, Vial2, read-out: Solubility in EtOAc, Vial2): 4690 µg/mL (≈ 11.7 mM)
solubility at 24 h ([2]; ethyl acetate, EtOAc, average of two vials, read-out: Solubility in EtOAc, Average): 4700 µg/mL (≈ 11.7 mM)

Second part, led by results:

Solubility in 50:50 Cre/EtOH, Vial1 ([2]; 50:50 Cremophor/EtOH, Vial1): 42690 µg/mL (≈ 107 mM)
Solubility in 50:50 Cre/EtOH, Vial2 ([2]; 50:50 Cremophor/EtOH, Vial2): 42740 µg/mL (≈ 107 mM)
Solubility in 50:50 Cre/EtOH, Average ([2]; 50:50 Cremophor/EtOH, average of two vials): 42700 µg/mL (≈ 107 mM)
Solubility in EtOAc, Vial1 ([2]; EtOAc, Vial1): 7410 µg/mL (≈ 18.5 mM)
Solubility in EtOAc, Vial2 ([2]; EtOAc, Vial2): 7500 µg/mL (≈ 18.7 mM)
Solubility in EtOAc, Average ([2]; EtOAc, average of two vials): 7500 µg/mL (≈ 18.7 mM)
Solubility in EtOH, Vial1 ([2]; EtOH, Vial1): 9760 µg/mL (≈ 24.4 mM)
Solubility in EtOH, Vial2 ([2]; EtOH, Vial2): 9750 µg/mL (≈ 24.3 mM)
Solubility in EtOH, Average ([2]; EtOH, average of two vials): 9800 µg/mL (≈ 24.5 mM)
Compound: CN(NC(=O)CC(=O)NN(C)C(=S)c1ccccc1)C(=S)c1ccccc1 [Form D, N-malonyl-bis(N′-methyl-N′-thiobenzoylhydrazide)]

Appearance ([3]; 25° C./60% RH, 0 months): Pale-yellow
FT-IR ([3]; 25° C./60% RH, 0 months): Form D
Appearance ([3]; 25° C./60% RH, 1 month): Pale-yellow
FT-IR ([3]; 25° C./60% RH, 1 month): Form D
Appearance ([3]; 25° C./60% RH, 3 months): Pale-yellow
FT-IR ([3]; 25° C./60% RH, 3 months): Form D
Appearance ([3]; 25° C./60% RH, 6 months): Pale yellow
FT-IR ([3]; 25° C./60% RH, 6 months): Form D
Appearance ([3]; 25° C./60% RH, 9 months): Pale yellow
FT-IR ([3]; 25° C./60% RH, 9 months): Form D
Appearance ([3]; 25° C./60% RH, 12 months): Pale yellow
FT-IR ([3]; 25° C./60% RH, 12 months): Form D
Appearance ([3]; 40° C./75% RH, 0 months): Pale-
FT-IR ([3]; 40° C./75% RH, 0 months): Form D
Appearance ([3]; 40° C./75% RH, 0.5 months): Pale-yellow
FT-IR ([3]; 40° C./75% RH, 0.5 months): Form D
Appearance ([3]; 40° C./75% RH, 1 month): Pale-
FT-IR ([3]; 40° C./75% RH, 1 month): Form D
Appearance ([3]; 40° C./75% RH, 3 months): Pale-yellow
FT-IR ([3]; 40° C./75% RH, 3 months): Form D
Appearance ([3]; 40° C./75% RH, 6 months): Pale-
FT-IR ([3]; 40° C./75% RH, 6 months): Form D
% compd 1 ([3]; 25° C./60% RH, 0 months): 99.0%
% compd 2 ([3]; 25° C./60% RH, 0 months): 1.30%
% compd 1 ([3]; 25° C./60% RH, 1 month): 98.8%
% compd 2 ([3]; 25° C./60% RH, 1 month): 1.28%
% compd 1 ([3]; 25° C./60% RH, 3 months): 99.0%
% compd 2 ([3]; 25° C./60% RH, 3 months): 1.31%
% compd 1 ([3]; 25° C./60% RH, 6 months): 99.0%
% compd 2 ([3]; 25° C./60% RH, 6 months): 1.28%
% compd 1 ([3]; 25° C./60% RH, 9 months): 97.5%
% compd 2 ([3]; 25° C./60% RH, 9 months): 1.38%
% compd 1 ([3]; 25° C./60% RH, 12 months): 98.0%
% compd 2 ([3]; 25° C./60% RH, 12 months): 1.33%
% compd 1 ([3]; 40° C./75% RH, 0 months): 99.0%
% compd 2 ([3]; 40° C./75% RH, 0 months): 1.30%
% compd 1 ([3]; 40° C./75% RH, 0.5 months): 99.7%
% compd 2 ([3]; 40° C./75% RH, 0.5 months): 1.28%
% compd 1 ([3]; 40° C./75% RH, 1 month): 95.8%
% compd 2 ([3]; 40° C./75% RH, 1 month): 1.28%
% compd 1 ([3]; 40° C./75% RH, 3 months): 98.9%
% compd 2 ([3]; 40° C./75% RH, 3 months): 1.33%
% compd 1 ([3]; 40° C./75% RH, 6 months): 98.4%
% compd 2 ([3]; 40° C./75% RH, 6 months): 1.31%
Compound: CN(NC(=O)CC(=O)NN(C)C(=S)c1ccccc1)C(=S)c1ccccc1 [Lot #1, N-malonyl-bis(N′-methyl-N′-thiobenzoylhydrazide)]

Appearance ([3]; 25° C./60% RH, 0 months): Pale-yellow
FT-IR ([3]; 25° C./60% RH, 0 months): Form D
Appearance ([3]; 25° C./60% RH, 1 month): Pale-yellow
FT-IR ([3]; 25° C./60% RH, 1 month): Form D
Appearance ([3]; 25° C./60% RH, 3 months): Pale-yellow
FT-IR ([3]; 25° C./60% RH, 3 months): Form D
Appearance ([3]; 25° C./60% RH, 6 months): Pale-yellow
FT-IR ([3]; 25° C./60% RH, 6 months): Form D
Appearance ([3]; 25° C./60% RH, 9 months): Pale-yellow
FT-IR ([3]; 25° C./60% RH, 9 months): Form D
Appearance ([3]; 25° C./60% RH, 12 months): Pale-yellow
FT-IR ([3]; 25° C./60% RH, 12 months): Form D
Appearance ([3]; 40° C./75% RH, 0 months): Pale-
FT-IR ([3]; 40° C./75% RH, 0 months): Form D
Appearance ([3]; 40° C./75% RH, 0.5 months): Pale-yellow
FT-IR ([3]; 40° C./75% RH, 0.5 months): Form D
Appearance ([3]; 40° C./75% RH, 1 month): Pale-
FT-IR ([3]; 40° C./75% RH, 1 month): Form D
Appearance ([3]; 40° C./75% RH, 3 months): Pale-yellow
FT-IR ([3]; 40° C./75% RH, 3 months): Form D
Appearance ([3]; 40° C./75% RH, 6 months): Pale-
FT-IR ([3]; 40° C./75% RH, 6 months): Form D
% compd 1 ([3]; 25° C./60% RH, 0 months): 99.7%
% compd 2 ([3]; 25° C./60% RH, 0 months): 0.15%
% compd 1 ([3]; 25° C./60% RH, 1 month): 98.6%
% compd 2 ([3]; 25° C./60% RH, 1 month): 0.14%
% compd 1 ([3]; 25° C./60% RH, 3 months): 100.2%
% compd 2 ([3]; 25° C./60% RH, 3 months): 0.15%
% compd 1 ([3]; 25° C./60% RH, 6 months): 99.6%
% compd 2 ([3]; 25° C./60% RH, 6 months): 0.13%
% compd 1 ([3]; 25° C./60% RH, 9 months): 98.9%
% compd 2 ([3]; 25° C./60% RH, 9 months): 0.13%
% compd 1 ([3]; 25° C./60% RH, 12 months): 99.7%
% compd 2 ([3]; 25° C./60% RH, 12 months): 0.13%
% compd 1 ([3]; 40° C./75% RH, 0 months): 99.7%
% compd 2 ([3]; 40° C./75% RH, 0 months): 0.15%
% compd 1 ([3]; 40° C./75% RH, 0.5 months): 99.6%
% compd 2 ([3]; 40° C./75% RH, 0.5 months): 0.14%
% compd 1 ([3]; 40° C./75% RH, 1 month): 100.3%
% compd 2 ([3]; 40° C./75% RH, 1 month): 0.16%
% compd 1 ([3]; 40° C./75% RH, 3 months): 100.2%
% compd 2 ([3]; 40° C./75% RH, 3 months): 0.19%
% compd 1 ([3]; 40° C./75% RH, 6 months): 101.7%
% compd 2 ([3]; 40° C./75% RH, 6 months): 0.18%
Compound: CN(NC(=O)CC(=O)NN(C)C(=S)c1ccccc1)C(=S)c1ccccc1 [Lot #2, N-malonyl-bis(N′-methyl-N′-thiobenzoylhydrazide)]

% by weight that passed through a specific size screen, % (Sieve-cut test): Does not pass
Re-constitution time (min) for specific sieve-cut ([1]; 500 micron sieve-cut): >>25, 500 micron min
Compound: CN(NC(=O)CC(=O)NN(C)C(=S)c1ccccc1)C(=S)c1ccccc1 [compound 1, N-malonyl-bis(N′-methyl-N′-thiobenzoylhydrazide)]
time to progression [4]: increase the time to progression

% by weight that passed through a specific size screen, % (Sieve-cut test): Does not pass
Re-constitution time (min) for specific sieve-cut ([1]; 500 micron sieve-cut): >>25, 500 micron min
Compound: CN(NC(=O)CC(=O)NN(C)C(=S)c1ccccc1)C(=S)c1ccccc1 [compound 2]
